Patent US8252737B2, “Antimicrobial peptides and methods of use” (priority 2004, dated 2012)
Converted amounts (≈) assume the structure as drawn. Read-outs that look alike come from different tables or passages of the source. Square brackets hold non-standard residues; d marks the D form. Peptide text beside a SMILES is read from it.

Tests used:
human erythrocytes = assay: Hemolytic activity (MHC), Protocol A, 12 hours; settings: for minimal hemolytic concentration (MHC): incubation for 12 hours at 37° C. (Tables 7 and 8)
Procedure: Measurement of Hemolytic Activity—Protocol A: Peptide samples were added to 1% human erythrocytes in phosphate buffered saline (0.08M NaCl; 0.043M Na2PO4; 0.011M KH2PO4) and reactions were incubated at 37° C. for 12 hours in microtiter plates. Peptide samples were diluted 2 fold in order to determine the concentration that produced no hemolysis. […] Hemoglobin release was determined spectrophotometrically at 562 nm. The hemolytic titer was the highest 2-fold dilution of the peptide that still caused release of hemoglobin from erythrocytes. The control for no release of hemoglobin was a sample of 1% erythrocytes without any peptide added. […] Peptide samples were diluted 2 fold in order to determine the concentration that produced no hemolysis. […] Hemoglobin release was determined spectrophotometrically at 570 nm. The hemolytic titer was the highest 2-fold dilution of the peptide that still caused release of hemoglobin from erythrocytes. The control for no release of hemoglobin was a sample of 1% erythrocytes without any peptide added.

[1] = RP-HPLC temperature profiling (hydrophobicity and self-association/dimerization parameter PA); type: physicochemical; settings: for tR (min) 5° C.: RP-HPLC retention time at 5° C. during temperature profiling (measure of hydrophobicity); for tR (min) 80° C.: RP-HPLC retention time at 80° C. during temperature profiling; for Hydrophobicity tR5: RP-HPLC retention time at pH 2, 5° C.; for Hydrophobicity tR80: RP-HPLC retention time at pH 2, 80° C.; for decrease in hydrophobicity relative to NVL (V681) / ΔtR (X-NVL) (min) 5° C. / ΔtR (X-NVL) (min) 80° C.: non-polar face substitutions; for tR (min) Max: maximal RP-HPLC retention time during temperature profiling 5-80° C.; for PA (min) association parameter: maximal retention time difference relative to control peptide C within 5-80° C.; for PA (dimerization / self-association parameter): maximal retention time difference relative to control peptide C, 5-80° C.; for ΔtR (X-NVL) (min) 5° C.: retention time difference relative to native peptide V681 (NVL) at 5° C.; for ΔtR (X-NVL) (min) 5° C. / ΔtR (X-NVL) (min) 80° C. / ΔtR (X-PSL) (min) 5° C. / ΔtR (X-PSL) (min) 80° C.: relative hydrophobicity; for ΔtR (X-NVL) (min) 80° C.: retention time difference relative to native peptide V681 (NVL) at 80° C.; for ΔtR (X-PSL) (min) 5° C.: retention time difference relative to native peptide V681 (PSL) at 5° C.; for ΔtR (X-PSL) (min) 80° C.: retention time difference relative to native peptide V681 (PSL) at 80° C.
Method in brief: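 RP-HPLC retention times recorded over temperature profiling from 5°C to 80°C, with retention relative to native V681 at each limit used as hydrophobicity. Self-association parameter PA defined as the maximal change in retention time from 5°C, after subtracting that of monomeric random-coil control peptide C.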

gram-positive bacteria = system: gram-positive bacteria
Method in brief: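 Microtiter dilution in LB no-salt or Mueller-Hinton medium, with BHI for Pseudomonas aeruginosa clinical isolates (final inoculum 1×10^6 CFU/ml). Plates were incubated 24 hours at 37° C. MIC was the lowest peptide concentration inhibiting growth.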

gram-negative bacteria = assay: MIC, microtiter dilution, Gram-negative bacteria (geometric mean of 6 strains); type: cell-based; settings: for MIC (μg/ml) GM: geometric mean of MIC values from all 6 Gram-negative strains of Table 11; for MIC (μg/ml) Gram-negative: geometric mean MIC, Table 9
Method in brief: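 Microtiter broth dilution in LB no-salt or Mueller-Hinton broth (brain heart infusion for P. aeruginosa clinical isolates, inoculum 1×10^6 CFU/ml); overnight 37° C. cultures diluted, plates incubated 37° C. 24 h. MIC is lowest peptide concentration inhibiting growth; value is geometric mean over 6 strains.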

[2] = RP-HPLC retention time difference at 80° C.
[3] = minimal hemolytic concentration on human red blood cells (hRBC), Table 9

Row | Structure (SMILES) | tR (min) 5° C. [1] [min] | tR (min) 80° C. [1] [min] | Hydrophobicity tR5 [1] [min] | Hydrophobicity tR80 [1] [min] | decrease in hydrophobicity relative to NVL (V681) [1, 2] [min] | tR (min) Max [1] [min] | PA (min) association parameter [1] [min] | PA (dimerization / self-association parameter) [1] | ΔtR (X-NVL) (min) 5° C. [1] [min] | ΔtR (X-NVL) (min) 80° C. [1] [min] | MIC (μg/ml) GM (gram-negative bacteria) [µg/mL] | minimal hemolytic concentration (MHC) (human erythrocytes) [µg/mL] | MHC (human erythrocytes; [3]) [µg/mL] | MIC (μg/ml) Gram-positive (gram-positive bacteria) [µg/mL] | MIC (μg/ml) Gram-negative (gram-negative bacteria) [µg/mL] | ΔtR (X-PSL) (min) 5° C. ([1]; polar face substitutions) [min] | ΔtR (X-PSL) (min) 80° C. ([1]; polar face substitutions) [min] | other results
1 | CC[C@H](C)[C@H](NC(=O)[C@H](C)NC(=O)[C@H](CCCCN)NC(=O)[C@H](CC(C)C)NC(=O)[C@H](C)NC(=O)[C@@H](NC(=O)[C@H](Cc1cnc[nH]1)NC(=O)[C@H](CC(C)C)NC(=O)[C@@H](NC(=O)[C@@H](NC(=O)[C@H](CCCCN)NC(=O)[C@H](CCCCN)NC(=O)[C@H](C)NC(=O)[C@H](CO)NC(=O)[C@H](CCCCN)NC(=O)[C@H](Cc1ccccc1)NC(=O)[C@@H](NC(=O)[C@H](CCCCN)NC(=O)[C@H](CC(C)C)NC(=O)[C@H](Cc1ccccc1)NC(=O)[C@H](CO)NC(=O)[C@H](CCCCN)NC(=O)[C@H](Cc1c[nH]c2ccccc12)NC(=O)[C@H](CCCCN)NC(C)=O)[C@@H](C)O)[C@@H](C)O)C(C)C)[C@@H](C)O)C(=O)N[C@@H](CO)C(=O)N[C@@H](CO)C(N)=O [NKL] | 36.85 | 33.22 | 74.9 | 64.7 | -12.61 | 36.91 | 1.10 | 2.1 | -11.25 | -12.61 | 3.9 (≈ 1.3 µM) |  |  |  |  |  |  | fold decrease in hemolytic activity compared to V681 (human erythrocytes; 12 hours): > 32; MIC (μg/ml) GM (gram-positive bacteria; geometric mean of MIC values from all 6 gram-positive strains of Table 12): 7.9 µg/mL (≈ 2.64 µM); geometric mean MIC against Gram-negative bacteria (gram-negative bacteria; 6 strains of Table 7): 3.1 µg/mL; fold improvement on the average MIC compared to V681 (gram-negative bacteria; gram-negative bacteria, geometric mean comparison, Table 7): 2.8
2 | CC[C@H](C)[C@H](NC(=O)[C@H](C)NC(=O)[C@H](CCCCN)NC(=O)[C@H](CC(C)C)NC(=O)[C@H](C)NC(=O)[C@@H](NC(=O)[C@H](Cc1c[nH]cn1)NC(=O)[C@H](CC(C)C)NC(=O)[C@@H](NC(=O)[C@@H](NC(=O)[C@H](CCCCN)NC(=O)[C@H](C)NC(=O)[C@H](C)NC(=O)[C@H](CO)NC(=O)[C@H](CCCCN)NC(=O)[C@H](Cc1ccccc1)NC(=O)[C@@H](NC(=O)[C@H](CCCCN)NC(=O)[C@H](CC(C)C)NC(=O)[C@H](Cc1ccccc1)NC(=O)[C@H](CO)NC(=O)[C@H](CCCCN)NC(=O)[C@H](Cc1c[nH]c2ccccc12)NC(=O)[C@H](CCCCN)NC(C)=O)[C@@H](C)O)[C@@H](C)O)C(C)C)[C@@H](C)O)C(=O)N[C@@H](CO)C(=O)N[C@@H](CO)C(N)=O [NAL] | 43.94 | 41.38 |  |  | -4.45 | 44.88 | 2.59 |  | -4.16 | -4.45 |  | 31.2 | 31.2 | 4.5 (≈ 1.53 µM) | 3.8 (≈ 1.3 µM) |  |  | 
3 | CC[C@H](C)[C@H](NC(=O)[C@H](C)NC(=O)[C@H](CCCCN)NC(=O)[C@H](CC(C)C)NC(=O)[C@H](C)NC(=O)[C@@H](NC(=O)[C@H](Cc1c[nH]cn1)NC(=O)[C@H](CC(C)C)NC(=O)[C@@H](NC(=O)[C@@H](NC(=O)[C@H](CCCCN)NC(=O)[C@@H](NC(=O)[C@H](C)NC(=O)[C@@H](C)NC(=O)[C@H](CCCCN)NC(=O)[C@H](Cc1ccccc1)NC(=O)[C@@H](NC(=O)[C@H](CCCCN)NC(=O)[C@H](CC(C)C)NC(=O)[C@H](Cc1ccccc1)NC(=O)[C@H](CO)NC(=O)[C@H](CCCCN)NC(=O)[C@H](Cc1c[nH]c2ccccc12)NC(=O)[C@H](CCCCN)NC(C)=O)[C@@H](C)O)C(C)C)[C@@H](C)O)C(C)C)[C@@H](C)O)C(=O)N[C@@H](CO)C(=O)N[C@@H](CO)C(N)=O [PAD] (Ac-KWKSFLKTFK[dA]AVKTVLHTALKAISS-NH2) | 45.19 | 42.57 |  |  |  | 46.36 | 2.82 |  |  |  |  |  |  | 3.8 (≈ 1.29 µM) | 4.3 (≈ 1.46 µM) | -2.91 | -3.26 | MHC (human erythrocytes): 15.6 µg/mL
4 | CC[C@H](C)[C@H](NC(=O)[C@H](C)NC(=O)[C@H](CCCCN)NC(=O)[C@H](CC(C)C)NC(=O)[C@H](C)NC(=O)[C@@H](NC(=O)[C@H](Cc1c[nH]cn1)NC(=O)[C@H](CC(C)C)NC(=O)[C@@H](NC(=O)[C@@H](NC(=O)[C@H](CCCCN)NC(=O)[C@@H](NC(=O)[C@H](C)NC(=O)[C@@H](CO)NC(=O)[C@H](CCCCN)NC(=O)[C@H](Cc1ccccc1)NC(=O)[C@@H](NC(=O)[C@H](CCCCN)NC(=O)[C@H](CC(C)C)NC(=O)[C@H](Cc1ccccc1)NC(=O)[C@H](CO)NC(=O)[C@H](CCCCN)NC(=O)[C@H](Cc1c[nH]c2ccccc12)NC(=O)[C@H](CCCCN)NC(C)=O)[C@@H](C)O)C(C)C)[C@@H](C)O)C(C)C)[C@@H](C)O)C(=O)N[C@@H](CO)C(=O)N[C@@H](CO)C(N)=O [PSD] | 45.47 | 42.59 |  |  |  | 46.60 | 2.73 |  |  |  |  |  | 15.6 |  | 2.9 (≈ 0.979 µM) | -2.63 | -3.24 | geometric mean MIC against gram-positive bacteria (gram-positive bacteria; Table 8): 2.3 µg/mL; MIC (μg/ml) Gram-positive (gram-positive bacteria; geometric mean MIC, Table 9): 2.3 µg/mL (≈ 0.777 µM); fold improvement in antimicrobial activity compared to V681 (gram-positive bacteria; gram-positive bacteria, geometric mean MIC, Table 8): 2.7
5 | CC[C@H](C)[C@H](NC(=O)[C@H](C)NC(=O)[C@H](CCCCN)NC(=O)[C@H](CC(C)C)NC(=O)[C@H](C)NC(=O)[C@@H](NC(=O)[C@H](Cc1c[nH]cn1)NC(=O)[C@H](CC(C)C)NC(=O)[C@@H](NC(=O)[C@@H](NC(=O)[C@H](CCCCN)NC(=O)[C@@H](NC(=O)[C@H](C)NC(=O)[C@H](CO)NC(=O)[C@H](CCCCN)NC(=O)[C@H](Cc1ccccc1)NC(=O)[C@@H](NC(=O)[C@H](CCCCN)NC(=O)[C@H](CC(C)C)NC(=O)[C@H](Cc1ccccc1)NC(=O)[C@H](CO)NC(=O)[C@H](CCCCN)NC(=O)[C@H](Cc1c[nH]c2ccccc12)NC(=O)[C@H](CCCCN)NC(C)=O)[C@@H](C)O)C(C)C)[C@@H](C)O)C(C)C)[C@@H](C)O)C(=O)N[C@@H](CO)C(=O)N[C@@H](CO)C(N)=O [Peptide V681, reference compound] | 48.10 | 45.83 | 96.6 | 88.8 |  | 49.99 | 3.63 | 7.2 | 0 | 0 | 5.0 (≈ 1.69 µM) | 15.6 | 15.6 | 6.3 (≈ 2.13 µM) | 8.8 (≈ 2.97 µM) | 0 | 0 | overall hydrophobicity change relative to PVL ([1]; RP-HPLC retention time difference at 80° C., polar face substitutions): -0.35 min; MIC (μg/ml) GM (gram-positive bacteria): 4.4 µg/mL (≈ 1.49 µM); geometric mean MIC against gram-positive bacteria (gram-positive bacteria): 6.3 µg/mL
